Measurements as given in patent US8053435B2, “Naphthalenyloxypropenyl derivatives having inhibitory activity against histone deacetylase and pharmaceutical composition comprising the same” (Korea Research Institute of Chemical Technology, priority 2006, dated 2011).
Where two headings read alike, the source gives them in different places. Values belong to the compound of their own block, whether it stands above or below them.

Columns and labels:
[1] = test system: colon cancer cells HCT116; assay: Inhibitory activity against proliferation of cancer cells, SRB (Sulforhodamine B) analysis; format: cell-based; settings: read-out: Inhibitory conc. against cancer cell growth (EC50 μM) HCT116
Experimental: Cancer cells were inoculated into a 96-well microplate at a concentration of 1×10^3˜3×10^3 cells/well and incubated under the condition of 37° C., 5% CO2 for 24 hrs. After the incubation was completed, 0.2, 1, 5, 25, or 100 μM of each of the compounds of Examples was added to the plate, and then the reactant was incubated for 48 hrs. After the substrate was stained with SRB, the anti-cancer activity was determined by comparing the amount of protein in the cells treated with the compound of Examples with that of protein in untreated cells.
Specifically, after the incubation was completed, the culture medium was removed from each well, and the cells were washed 3 times with PBS (pH 7.4). Then, a solution of 50% trichloroacetic acid (TCA) was added to each well in an amount of 50 μl/well at 4° C. for 1 hr to fix them. Then, the microplate was washed 5 times with distilled water and dried in air. […]
50 μl of a staining solution prepared by dissolving 0.4% SRB in 1% acetic acid was added to the wells, and the microplate was kept at room temperature for 1 hr. The well plate was then washed 5 times with 1% acetic acid to remove unbound SRB and dried in air. The stained cells were treated with 150 μl/well of 10 mM Tris-HCl solution (pH 10.5) to elute SRB from the cells, and the absorbance of the cells treated with the compounds of examples at 540 nm was measured, based on the absorbance of an untreated cell. The EC50 value representing inhibition of the cancer cell growth by the extent of 50% was calculated from the measured absorbance, and the results are shown in Table 6.

HDAC = assay: Inhibitory activity against HDAC (BIOMOL Quantizyme Assay system, Fluor de Lys substrate); format: biochemical; settings: HeLa nuclear extract as source of HDAC enzymes, enzyme reaction 1 hr
Experimental: HDAC activity was analyzed using BIOMOL Quantizyme™ Assay system which comprised two steps of 1) enzyme reaction between HDAC and a substrate and 2) determination of the level of HDAC inhibitory activity.
(§1) 0.5 μl of HeLa nuclear organic layer (10 μM) (a source of HDAC enzymes) was then added thereto to a final concentration of 100 nM. The enzyme reaction was carried out for 1 hr.
Subsequently, in step 2), 2 μM tricostatin A was added to 50 μl of Flour de Lys™ developer, followed by allowing the mixture to react at room temperature for 15 minutes. The light excited at 355 nm and emitted at 460 nm from the fluorophore was measured with a fluorometric plate reader. The intensity of the fluorescence increases as the enzyme activity is higher. The HDAC inhibitory activity of each of the test compounds was determined and compared with that of the control.
0.5 μl of HeLa nuclear organic layer (10 μM) (a source of HDAC enzymes) was then added thereto to a final concentration of 100 nM, The enzyme reaction was carried out for 1 hr.
as §1, §1

[2] = Table 5, formula (3) series, read-out: Inhibitory conc. (IC50, μM/ml)
[3] = Homo sapiens, HCT-116, Table 6, 48 hrs incubation with compound
[4] = Homo sapiens, HCT-116, Table 4, 48 hrs incubation with compound
[5] = Table 3, formula (2) series, read-out: IC50 (HDAC inhibitory concentration)
[6] = Homo sapiens, HCT-116, Table 2, 48 hrs incubation with compound
[7] = Table 1, formula (1) series, read-out: IC50 (HDAC inhibitory concentration)
[8] = Homo sapiens, HCT-116, Table 8, 48 hrs incubation with compound
[9] = Table 7, formula (4) series, read-out: HDAC Inhibitory conc. (IC50, μM/ml)

EC50 [1, 8]: 1.1 µM
IC50 (HDAC; [9]): 0.014 µM
Compound: CCN1CCC(NC/C(=C/c2ccc(C(=O)NO)cc2)COc2cccc3ccccc23)CC1 [Example 4-1, (Z)-4-(3-(1-ethylpiperidin-4-ylamino)-2-((naphthalen-1-yloxy)methyl)prop-1-enyl)-N-hydroxybenzamide]

EC50 [1, 8]: 0.8 µM
IC50 (HDAC; [9]): 0.017 µM
Compound: CCN1CCC(NC/C(=C/c2ccc(C(=O)NO)cc2)COc2cccc3ccccc23)C1 (stereo not shown) [Example 4-2, (Z)-4-(3-(1-ethylpyrrolidin-3-ylamino)-2-((naphthalen-1-yloxy)methyl)prop-1-enyl)-N-hydroxybenzamide]

EC50 [1, 8]: < 0.2 µM
IC50 (HDAC; [9]): 0.01 µM
Compound: COCCNC/C(=C/c1ccc(C(=O)NO)cc1)COc1cccc2ccccc12 [Example 4-20, (Z)—N-hydroxy-4-(3-(2-methoxyethylamino)-2-((naphthalen-1-yloxy)methyl)prop-1-enyl)-benzamide]

EC50 [1, 8]: 0.7 µM
IC50 (HDAC; [9]): 0.003 µM
Compound: O=C(NO)c1ccc(/C=C(/CNCCCn2ccnc2)COc2cccc3ccccc23)cc1 [Example 4-16, (Z)-4-(3-(3-(1H-imidazol-1-yl)propylamino)-2-((naphthalen-1-yloxy)methyl)prop-1-enyl)-N-hydroxybenzamide]

EC50 [1, 8]: 0.8 µM
IC50 (HDAC; [9]): 0.04 µM
Compound: COc1ccc(CCNC/C(=C/c2ccc(C(=O)NO)cc2)COc2cccc3ccccc23)cc1 [Example 4-23, (Z)—N-hydroxy-4-(3-(4-methoxyphenethylamino)-2-((naphthalen-1-yloxy)methyl)prop-1-enyl)-benzamide]

EC50 [1, 8]: < 0.2 µM
IC50 (HDAC; [9]): 0.005 µM
Compound: COCC(C)NC/C(=C/c1ccc(C(=O)NO)cc1)COc1cccc2ccccc12 (stereo not shown) [Example 4-13, (Z)—N-hydroxy-4-(3-(1-methoxypropan-2-ylamino)-2-((naphthalen-1-yloxy)methyl)prop-1-enyl)benzamide]

EC50 [1, 8]: 1 µM
IC50 (HDAC; [9]): 0.023 µM
Compound: O=C(NO)c1ccc(/C=C(/CNC2CCN(C3CC3)C2)COc2cccc3ccccc23)cc1 (stereo not shown) [Example 4-11, (Z)-4-(3-(1-cyclopropylpyrrolidin-3-ylamino)-2-((naphthalen-1-yloxy)methyl)prop-1-enyl)-N-hydroxybenzamide]

The next lines start with the compound.

Compound: (Z)-8-(4-Fluorophenethylamino)-N-hydroxy-7-((naphthalen-1-yloxy)methyl)oct-enamide [Example 3-9]
EC50 ([1]; Table 6, 48 hrs incubation with compound): 0.4 µM
IC50 (HDAC; [2]): 0.003 µM

Compound: O=C(CCCC/C=C(/CNCc1cccs1)COc1cccc2ccccc12)NO [Example 3-14, (Z)—N-Hydroxy-8-(naphthalen-1-yloxy)-7-((thiophen-2-ylmethylamino)methyl)oct-6-enamide]
EC50 [1, 3]: 0.3 µM
IC50 (HDAC; [2]): 0.002 µM

Compound: CCN1CCC(NC(=O)/C(=C/CCCCC(=O)NO)COc2cccc3ccccc23)C1 (stereo not shown) [Example 2-29, (E)-N1-(1-Ethylpyrrolidin-3-yl)-N8-hydroxy-2-((naphthalen-1-yloxy)methyl)-2-octenediamide]
EC50 [1, 4]: 0.9 µM
IC50 (HDAC; [5]): 0.01 µM

Compound: CC(C)N1CCC(NC(=O)/C(=C/CCCCC(=O)NO)COc2cccc3ccccc23)CC1 [Example 2-30, (E)-N8-Hydroxy-N1-(1-isopropylpiperidin-4-yl)-2-((naphthalen-1-yloxy)methyl)-2-octenediamide]
EC50 [1, 4]: 0.7 µM
IC50 (HDAC; [5]): 0.015 µM

Compound: O=C(CCCC/C=C(\COc1cccc2ccccc12)C(=O)NC1CCN(C2CCCC2)CC1)NO [Example 2-19, (E)-N1-(1-Cyclopentylpiperidin-4-yl)-N8-hydroxy-2-((naphthalen-1-yloxy)methyl)-2-octenediamide]
EC50 [1, 4]: 0.8 µM
IC50 (HDAC; [5]): 0.013 µM

Compound: COc1ccc(CNC(=O)/C(=C/CCCCC(=O)NO)COc2cccc3ccccc23)cc1 [Example 2-6, (E)-N8-Hydroxy-N1-(4-methoxybenzyl)-2-((naphthalen-1-yloxy)methyl)-2-octenediamide]
EC50 [1, 4]: 0.8 µM
IC50 (HDAC; [5]): 0.005 µM

Compound: CN1CCCC1CCNC(=O)/C(=C/c1ccc(C(=O)NO)cc1)COc1cccc2ccccc12 (stereo not shown) [Example 1-22, (E)-4-(3-(2-(1-Methylpyrrolidin-2-yl)ethylamino)-2-((naphthalen-1-yloxy)methyl)-3-oxo-1-propenyl)-N-hydroxy-benzamide]
EC50 [1, 6]: 0.8 µM
IC50 (HDAC; [7]): 0.013 µM

Compound: O=C(CCCC/C=C(\COc1cccc2ccccc12)C(=O)NCc1cccs1)NO [Example 2-15, (E)-N8-Hydroxy-2-((naphthalen-1-yloxy)methyl)-N1-(thiophen-2-ylmethyl)-2-octenediamide]
EC50 [1, 4]: 0.4 µM
IC50 (HDAC; [5]): 0.008 µM

Compound: O=C(CCCC/C=C(/CNCCCN1CCCC1=O)COc1cccc2ccccc12)NO [Example 3-3, (Z)—N-Hydroxy-8-(naphthalen-1-yloxy)-7-((3-(2-oxopyrrolidin-1-yl)propylamino)methyl)oct-6-enamide]
EC50 [1, 3]: 0.5 µM
IC50 (HDAC; [2]): 0.003 µM

Compound: O=C(CCCC/C=C(/CNCCN1CCCC1)COc1cccc2ccccc12)NO [Example 3-8, (Z)—N-Hydroxy-8-(naphthalen-1-yloxy)-7-((2-(pyrrolidin-1-yl)ethylamino)methyl)oct-6-enamide]
EC50 [1, 3]: 0.5 µM
IC50 (HDAC; [2]): 0.005 µM

Compound: O=C(CCCC/C=C(/CNCCCn1ccnc1)COc1cccc2ccccc12)NO [Example 3-4, (Z)-8-(3-(1H-Imidazol-1-yl)propylamino)-N-hydroxy-7-((naphthalen-1-yloxy)methyl)oct-6-enamide]
EC50 [1, 3]: 0.7 µM
IC50 (HDAC; [2]): 0.003 µM

Compound: O=C(CCCC/C=C(\COc1cccc2ccccc12)C(=O)NCc1ccco1)NO [Example 2-11, (E)-N1-(Furan-2-ylmethyl)-N8-hydroxy-2-((naphthalen-1-yloxy)methyl)-2-octenediamide]
EC50 [1, 4]: 0.6 µM
IC50 (HDAC; [5]): 0.006 µM

Compound: CN(C)CC(C)(C)CNC/C(=C/CCCCC(=O)NO)COc1cccc2ccccc12 [Example 3-7, (Z)-8-(3-(Dimethylamino)-2,2-dimethylpropylamino)-N-hydroxy-7-((naphthalen-1-yloxy)methyl)oct-6-enamide]
EC50 [1, 3]: 1.2 µM
IC50 (HDAC; [2]): 0.012 µM

Compound: O=C(CCCC/C=C(\COc1cccc2ccccc12)C(=O)NC1CCN(C2CC2)C1)NO (stereo not shown) [Example 2-26, (E)-N1-(1-Cyclopropylpyrrolidin-3-yl)-N8-hydroxy-2-((naphthalen-1-yloxy)methyl)-2-octenediamide]
EC50 [1, 4]: < 0.2 µM
IC50 (HDAC; [5]): 0.011 µM

Compound: CC(C)N1CCC(NC/C(=C/CCCCC(=O)NO)COc2cccc3ccccc23)CC1 [Example 3-11, (Z)—N-Hydroxy-8-(1-isopropylpiperidin-4-ylamino)-7-((naphthalen-1-yloxy)methyl)oct-6-enamide]
EC50 [1, 3]: 1.3 µM
IC50 (HDAC; [2]): 0.012 µM

Compound: CCN1CCC(NC(=O)/C(=C/c2ccc(C(=O)NO)cc2)COc2cccc3ccccc23)CC1 [Example 1-17, (E)-4-(3-(1-Ethylpiperidin-4-ylamino)-2-((naphthalen-1-yloxy)methyl)-3-oxoprop-1-enyl)-N-hydroxybenzamide]
EC50 [1, 6]: 0.5 µM
IC50 (HDAC; [7]): 0.008 µM

Compound: CN(C)CC(C)(C)CNC(=O)/C(=C/c1ccc(C(=O)NO)cc1)COc1cccc2ccccc12 [Example 1-4]
EC50 [1, 6]: 0.5 µM
IC50 (HDAC; [7]): 0.014 µM

Compound: COCC(C)NC(=O)/C(=C/c1ccc(C(=O)NO)cc1)COc1cccc2ccccc12 (stereo not shown) [Example 1-6, (E)-4-(3-(1-Methoxypropan-2-ylamino)-2-((naphthalen-1-yloxy)methyl)-3-oxoprop-1-enyl)-N-hydroxybenzamide]
EC50 [1, 6]: 0.63 µM
IC50 (HDAC; [7]): 0.023 µM

Compound: COCCNC(=O)/C(=C/CCCCC(=O)NO)COc1cccc2ccccc12 [Example 2-13, (E)-N8-Hydroxy-N1-(2-methoxyethyl)-2-((naphthalen-1-yloxy)methyl)-2-octenediamide]
EC50 [1, 4]: 0.6 µM
IC50 (HDAC; [5]): 0.024 µM
